We go through nine compounds from PubChem BioAssay (NCI).

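Values below derive from 48-hour exposures of cells grown in 96-well plates, with endpoints linearly interpolated between the two concentrations bracketing the appropriate inhibition level. GI50 marks 50% less growth. TGI marks complete inhibition of growth.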

Common to all, as to assay: NCI anticancer screen, dose series, 48 h
The test system of test [1] is HCT-15 colon.
The subject of test [2] is IGROV1 ovarian.
The subject of test [3] is LOX IMVI melanoma.
Test [4] relates to MOLT-4 leukemia.
The test system of test [5] is NCI-H226 lung.
In test [6] the test system is OVCAR-4 ovarian.
Test [7] deals with SK-MEL-2 melanoma.
Test [8] has as its system SN12C renal.
Test [9] has as its system SW-620 colon.
The subject of test [10] is UACC-62 melanoma.

As to `Clc1ccc(N/N=C/c2ccccn2)nc1`, the GI50 is 0.333 µM in [1]; 0.441 µM in test [2]; 0.326 µM in test [3]; 0.339 µM in test [4]; 0.401 µM in test [5]; 0.321 µM in [6]. Besides, the GI50 in test [7] was 0.675 µM; in test [8], 0.469 µM; in test [9] it was 0.468 µM; in test [10], 0.301 µM. The TGI in test [1] was more than 100 µM; in [2], more than 100 µM; in test [3], 18.6 µM; in test [4], more than 50.7 µM; in [5], more than 100 µM; in test [6] it was more than 100 µM. The TGI in test [7] was more than 100 µM; in [8], more than 100 µM; in test [9], more than 100 µM; in test [10], 1.08 µM.

Consider `Cc1nc2ccc(N=Nc3c(O)ccc4ccccc34)cc2[nH]1`, for which the TGI is more than 63.5 µM in [1]; more than 67 µM in test [2]; 32.4 µM in test [3]; 66.2 µM in test [4]; more than 100 µM in test [5]; 35.1 µM in test [6]. The TGI in test [7] is more than 76.8 µM; in [8], more than 74.9 µM; in [9], more than 70 µM; in test [10], more than 63.4 µM.

Turning to `O=[N+]([O-])c1ccccc1S(=O)(=O)c1ccccc1[N+](=O)[O-]`, the TGI in test [1], in [2], in test [3], in test [4], in test [5] and in test [6] was more than 100 µM in each case. Moreover, the TGI was more than 100 µM in test [7], more than 100 µM in test [8], more than 56.2 µM in test [9] and more than 100 µM in test [10].

For `Cc1cc(N2CCOCC2)nc(N(CCNc2ccnc3cc(Cl)ccc23)Cc2ccco2)n1`, the GI50 in test [1] is 3.6 µM; in [2], 3.92 µM; in [3], 2.03 µM; in test [4], 3.41 µM; in test [5], 3.78 µM; in test [6] it was 2.4 µM. Further, the GI50 in [7] was 2.14 µM; in test [8], 6.88 µM; in [9], 3.39 µM; in test [10], 3.25 µM. Moreover, the TGI in test [1] was 34.9 µM; in test [2], 23.1 µM; in test [3], 4.91 µM; in test [4] it was more than 100 µM; in [5], 25.5 µM; in test [6] it was 8.12 µM. The TGI in test [7] came out at 5.18 µM; in [8] it was 26.7 µM; in [9] it was 45.2 µM; in [10], 10 µM.

Take `COc1ccc(Nc2nc(NCc3ccccc3)c3ccccc3n2)cc1`: the GI50 in [1] was 3.69 µM; in [2] it was 7.12 µM; in test [3], 1.99 µM; in test [4], 2.12 µM; in test [5], 11.5 µM; in [6], 3.11 µM. Besides, the GI50 in test [7] is 8.72 µM; in test [8], 5.19 µM; in test [9], 2.82 µM; in test [10], 10.1 µM. The TGI amounted to 19 µM in [1]; 25.7 µM in test [2]; 3.92 µM in [3]; 5.28 µM in test [4]; 37.1 µM in [5]; 14.8 µM in [6]. The TGI in test [7] amounted to 21.7 µM; in [8], 19.6 µM; in test [9] it was 10.4 µM; in test [10], 23.3 µM.

For `COC(=O)C(=C\Sc1ccccc1)/C=C/C(=O)OC(C)(C)C`, the TGI in test [1] was 17.7 µM; in test [2], 27.5 µM; in test [3] it was 21.7 µM; in [4], 9.44 µM; in test [5], 30.9 µM; in test [6] it was 28.6 µM. Further, the TGI is 24.8 µM in test [7], more than 29 µM in test [8], 12.4 µM in [9] and 28.8 µM in test [10].

In the case of `Nc1cccc(-c2nc3sccn3c2-c2ccnc(NCCCNS(=O)(=O)c3ccc(C(F)(F)F)cc3)n2)c1`, the GI50 in test [1] is 3.33 µM; in [2], 3.75 µM; in test [3], 3.27 µM; in test [4] it was 2.8 µM; in test [5], 3.14 µM; in test [6] it was 3.27 µM. Moreover, the GI50 in test [7] is 4.66 µM; in test [8] it was 4.36 µM; in test [9], 8 µM; in test [10] it was 2.68 µM. Besides, the TGI in test [1] turned out to be 29.9 µM; in test [2] it was 23.4 µM; in test [3] it was 16.1 µM; in [4], 10.4 µM; in [5], 16.5 µM; in test [6] it was 22.8 µM. In addition, the TGI was 23.4 µM in test [7], more than 100 µM in test [8], more than 100 µM in [9] and 9.71 µM in [10].

Take `COC(=O)C(C(=O)C(=O)Nc1c(Cl)cc([N+](=O)[O-])cc1Cl)c1nc2cc(C)c(C)cc2[nH]c1=O` (stereo not given): the TGI in test [1], in test [2], in test [3], in test [4], in test [5] and in test [6] was more than 100 µM in each case. Besides, the TGI in [7], in [8], in test [9] and in test [10] was more than 100 µM each time.

Regarding `C=CC[Se]C(=O)c1ccccc1OC(C)=O`, the GI50 in test [1] was 2.12 µM; in test [2], 1.7 µM; in [3] it was 1.86 µM; in test [4] it was 2.9 µM; in test [5] it was 2.62 µM; in [6], 1.68 µM. The GI50 is 2.05 µM in test [7], 1.61 µM in test [8], 1.87 µM in [9] and 1.79 µM in [10]. Moreover, the TGI came to 5.09 µM in [1]; 3.11 µM in [2]; 3.78 µM in [3]; 8.43 µM in test [4]; 6.44 µM in test [5]; 3.19 µM in [6]. Besides, the TGI came out at 4.33 µM in [7], 3.01 µM in test [8], 3.9 µM in test [9] and 3.35 µM in test [10].
